Data reported in patent publication US20230013669A1, “Antibacterial Treatment Using a Cannabinoid and an Active Agent” (priority 2019, published 2023).
“And” between values parts separate entries of the source, which are not always exact repeats. Equal values may be shown once. Read-outs that look alike come from different tables or passages of the source.

Test system: Acinetobacter baumannii ATCC 19606 (GN_034)
Experiment: Synergy of cannabidiol with cell-wall disrupting agent (CBD MIC in combination, FICI)
Format: cell-based
Details: for MIC: Acinetobacter baumannii
Method: The compounds were stored short term at 4° C.
Analysis was performed using Microsoft Excel.

C=C(C)C1CCC(C)=CC1c1c(O)cc(CCCCC)cc1O (centres unmarked) [Cannabidiol, 2-[3-methyl-6-(1-methylethenyl)-2-cyclohexen-1-yl]-5-pentyl-1,3-benzenediol]
FICI range (Acinetobacter baumannii ATCC 19606, CBD with FADDI-287, MIC table (Table 95)): 0.25-8
FICI range (Acinetobacter baumannii ATCC 19606, CBD with FADDI-287, Synergy table (Table 97)): 0.25-8^
FICI range (Acinetobacter baumannii ATCC 19606, CBD with MCC_8980, MIC table (Table 99)): 0.06-1.02
FICI range (Acinetobacter baumannii ATCC 19606, CBD with MCC_8980, Synergy table (Table 101), listed as CBD): 0.06-0.25 and 0.06-0.26
FICI range (Acinetobacter baumannii ATCC 19606, CBD with Spero SPR206, Synergy table, listed as CBD): 0.25-0.5 and 0.25
CBD MIC with MCC_8980 (Acinetobacter baumannii ATCC 19606, MCC_8980 at 8 μg/mL, listed as CBD): 4 µg/mL
CBD MIC with MCC_8980 (Acinetobacter baumannii ATCC 19606, MCC_8980 at 16 μg/mL, listed as CBD): 2 µg/mL
FICI (Acinetobacter baumannii ATCC 19606, cannabidiol with FADDI-287 at 0.25 μg/mL, calculated using MIC of 256 μg/mL for cannabidiol): 0.5001
FICI (Acinetobacter baumannii ATCC 19606, cannabidiol with FADDI-287 at 0.5 μg/mL, calculated using MIC of 256 μg/mL for cannabidiol): 1
FICI (Acinetobacter baumannii ATCC 19606, cannabidiol with FADDI-287 at 1 μg/mL, calculated using MIC of 256 μg/mL for cannabidiol): 2
FICI (Acinetobacter baumannii ATCC 19606, cannabidiol with FADDI-287 at 2 μg/mL, calculated using MIC of 256 μg/mL for cannabidiol): 4
FICI (Acinetobacter baumannii ATCC 19606, cannabidiol with FADDI-287 at 4 μg/mL, calculated using MIC of 256 μg/mL for cannabidiol): 8
FICI (Acinetobacter baumannii ATCC 19606, cannabidiol with MCC_8980 at 1 μg/mL, calculated using MIC of 256 μg/mL for cannabidiol): 1.016
FICI (Acinetobacter baumannii ATCC 19606, cannabidiol with MCC_8980 at 2 μg/mL, calculated using MIC of 256 μg/mL for cannabidiol): 0.0625
FICI (Acinetobacter baumannii ATCC 19606, cannabidiol with MCC_8980 at 4 μg/mL, calculated using MIC of 256 μg/mL for cannabidiol): 0.09375
FICI (Acinetobacter baumannii ATCC 19606, cannabidiol with MCC_8980 at 8 μg/mL, calculated using MIC of 256 μg/mL for cannabidiol): 0.1328 and 0.1406
FICI (Acinetobacter baumannii ATCC 19606, cannabidiol with MCC_8980 at 16 μg/mL, calculated using MIC of 256 μg/mL for cannabidiol): 0.2578
FICI (Acinetobacter baumannii ATCC 19606, cannabidiol with SPR741 at 1 μg/mL, calculated using MIC of 256 μg/mL for cannabidiol): 1.016
FICI (Acinetobacter baumannii ATCC 19606, cannabidiol with SPR741 at 2 μg/mL, calculated using MIC of 256 μg/mL for cannabidiol): 1.031
FICI (Acinetobacter baumannii ATCC 19606, cannabidiol with SPR741 at 2 μg/mL, calculated using MIC of 256 μg/mL for cannabidiol, listed as cannabidiol): 1.016
MIC (ATCC19606, Acinetobacter baumannii ATCC 19606, FADDI-287 at 0.25 μg/mL, read-out: CBD MIC with FADDI-287): 0.015 µg/mL
MIC (ATCC19606, Acinetobacter baumannii ATCC 19606, FADDI-287 at 0.5 μg/mL, read-out: CBD MIC with FADDI-287): 0.001 µg/mL
MIC (ATCC19606, Acinetobacter baumannii ATCC 19606, FADDI-287 at 1 μg/mL, read-out: CBD MIC with FADDI-287): 0.001 µg/mL
MIC (ATCC19606, Acinetobacter baumannii ATCC 19606, FADDI-287 at 2 μg/mL, read-out: CBD MIC with FADDI-287): 0.001 µg/mL
MIC (ATCC19606, Acinetobacter baumannii ATCC 19606, FADDI-287 at 4 μg/mL, read-out: CBD MIC with FADDI-287): 0.001 µg/mL
MIC (ATCC19606, Acinetobacter baumannii ATCC 19606, MCC_8980 at 2 μg/mL, read-out: CBD MIC with MCC_8980): 8 µg/mL
MIC (ATCC19606, Acinetobacter baumannii ATCC 19606, MCC_8980 at 4 μg/mL, read-out: CBD MIC with MCC_8980): 8 µg/mL
MIC (ATCC19606, Acinetobacter baumannii ATCC 19606, MCC_8980 at 8 μg/mL, read-out: CBD MIC with MCC_8980): 2 µg/mL
MIC (ATCC19606, Acinetobacter baumannii ATCC 19606, MCC_8980 at 16 μg/mL, read-out: CBD MIC with MCC_8980): 1 µg/mL
MIC (ATCC19606, Acinetobacter baumannii ATCC 19606, Spero SPR206 at 2 μg/mL, read-out: CBD MIC with Spero SPR206): 0.001 µg/mL
MIC (ATCC19606, Acinetobacter baumannii ATCC 19606, Spero SPR206 at 4 μg/mL, read-out: CBD MIC with Spero SPR206): 0.001 µg/mL
MIC (ATCC19606, MCC_6442 at 1 μg/mL, Acinetobacter baumannii ATCC 19606, read-out: CBD MIC with MCC_6442): 16 µg/mL
MIC (ATCC19606, MCC_6442 at 2 μg/mL, Acinetobacter baumannii ATCC 19606, read-out: CBD MIC with MCC_6442): 1 µg/mL
MIC (ATCC19606, MCC_6442 at 4 μg/mL, Acinetobacter baumannii ATCC 19606, read-out: CBD MIC with MCC_6442): 0.5 µg/mL
MIC (ATCC19606, Octapeptin C4 at 2 μg/mL, read-out: CBD MIC with Octapeptin C4): 8 µg/mL
MIC (ATCC19606, Octapeptin C4 at 4 μg/mL, read-out: CBD MIC with Octapeptin C4): 2 µg/mL
MIC (ATCC19606, Spero SPR206 at 0.25 μg/mL, 1st of 3 experiments, read-out: CBD MIC with Spero SPR206): 0.001 µg/mL
MIC (ATCC19606, Spero SPR206 at 0.25 μg/mL, 3rd of 3 experiments, read-out: CBD MIC with Spero SPR206): > 256 µg/mL
MIC (ATCC19606, Spero SPR206 at 0.5 μg/mL, 1st of 3 experiments, read-out: CBD MIC with Spero SPR206): 0.001 µg/mL
MIC (ATCC19606, Spero SPR206 at 0.5 μg/mL, 3rd of 3 experiments, read-out: CBD MIC with Spero SPR206): > 256 µg/mL
MIC (ATCC19606, Spero SPR206 at 1 μg/mL, 1st of 3 experiments, read-out: CBD MIC with Spero SPR206): 0.001 µg/mL
MIC (ATCC19606, Spero SPR206 at 1 μg/mL, 3rd of 3 experiments, read-out: CBD MIC with Spero SPR206): 1 µg/mL
MIC (ATCC19606, Spero SPR206 at 2 μg/mL, 1st of 3 experiments, read-out: CBD MIC with Spero SPR206): 0.001 µg/mL
MIC (ATCC19606, Spero SPR206 at 2 μg/mL, 3rd of 3 experiments, read-out: CBD MIC with Spero SPR206): 0.001 µg/mL
MIC (ATCC19606, Spero SPR206 at 4 μg/mL, 1st of 3 experiments, read-out: CBD MIC with Spero SPR206): 0.001 µg/mL
MIC (ATCC19606, Spero SPR206 at 4 μg/mL, 3rd of 3 experiments, read-out: CBD MIC with Spero SPR206): 0.001 µg/mL
CBD MIC with Aztreonam (Aztreonam at 4 μg/mL): 32 µg/mL
CBD MIC with Aztreonam (Aztreonam at 8 μg/mL): 32 µg/mL
CBD MIC with Aztreonam (Aztreonam at 16 μg/mL): 0.001 µg/mL
FICI (CBD with Aztreonam at 0.5 μg/mL, CBD MIC taken as 256 μg/mL): 1.016
FICI (CBD with Aztreonam at 1 μg/mL, CBD MIC taken as 256 μg/mL): 1.031
FICI (CBD with Aztreonam at 2 μg/mL, CBD MIC taken as 256 μg/mL): 1.0625
FICI (CBD with Aztreonam at 4 μg/mL, CBD MIC taken as 256 μg/mL): 0.25
